Entries after “also recorded” stand apart in the source; their conditions may differ. Non-standard residues stand in square brackets, D forms with d. No end group written: not given here.
What was measured:
[1] = test system: H2O2, hydroxyl radical, and peroxynitrite; test: Neutralization of reactive species and lipid peroxidation; format: biochemical
[2] = test system: animal models of ischemia-reperfusion injury, neurodegenerative diseases, and metabolic syndrome; test: Animal models of ischemia-reperfusion injury, neurodegenerative diseases, and metabolic syndrome; format: in vivo
mitochondrial ROS = test: Cellular and animal studies of mitochondrial ROS and function
cytochrome c [3] = target: T1, cytochrome c (Homo sapiens, UniProt P99999); test: Cytochrome c reduction by absorption spectroscopy (absorbance at 550 nm); format: biochemical; conditions: for rate of cytochrome c reduction: glutathione (GSH) as reducing agent, absorbance at 550 nm, FIG. 1B, FIG. 13
T1 sequence (P99999 whole entry, species assumed): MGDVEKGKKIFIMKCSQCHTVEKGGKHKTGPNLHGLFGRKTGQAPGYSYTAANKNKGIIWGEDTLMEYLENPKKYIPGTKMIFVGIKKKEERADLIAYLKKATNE
Experimental: Cytochrome c reduction: increasing amounts of aromatic-cationic peptides were added to a solution of oxidized cytochrome c. The formation of reduced cytochrome c was monitored by absorbance at […]. The rate of cytochrome c reduction was determined by non-linear analysis (Prizm software).
Time-resolved UV-Visible absorption spectroscopy was used to study the electron transport process of cytochrome c in the presence of peptides. Reduced cytochrome c was monitored by absorbance at a broad-band spectral range (200-1100 nm). The absorption changes were recorded with a UV/Visible spectrophotometer (Ultrospec 3300 pro, GE) in quartz cells with path lengths of 1 or 2 mm. N-acetylcysteine (NAC) and glutathione were used as electron donors to reduce oxidized cytochrome c. The rate constant of cytochrome c reduction was estimated by adding various concentrations of peptides. The dose dependence of the peptides was correlated to the cytochrome c reduction kinetics.
Absorption spectroscopy (UltroSpec 3300 Pro; 220-1100 nm) was used to determine if SS-31 modulates cytochrome c reduction (FIG. 1). Reduction of cytochrome c with glutathione is associated with multiple shifts in the Q band (450-650 nm), with a prominent shift at 550 nm.
SS-31 and SS-20 can accelerate the kinetics of cytochrome c reduction induced by glutathione (GSH) as a reducing agent (FIG. 13). Reduction of cytochrome c was monitored by increase in absorbance at 550 nm. […] Similar results were obtained using N-acetylcysteine (NAC) as a reducing agent (not shown).

cytochrome c [4] = target: T1, cytochrome c; test: Cyclic voltammetry of cytochrome c; format: biochemical
cytochrome c [5] = target: T1, cytochrome c; test: Photoluminescence of cytochrome c (532.8 nm excitation, 650 nm emission); format: biochemical; conditions: Nd:YDO4 laser 532.8 nm
Source text: A light source 140, such as a laser or light-emitting diode (LED), illuminates the peptide-doped cytochrome c layer 110 at an excitation wavelength, such as 532.8 nm. […] (As understood by those skilled in the art, the gap between the valence band and the excited state is […] to the excitation wavelength.) After a short relaxation time, the electron decays from the excited state to a conduction band. When the electron relaxes to valence band from the conduction band, the peptide-doped cytochrome c layer 110 emits a photon at a luminescence wavelength, such as 650 nm, fixed by the gap between the valence and conduction bands.
Thus, as the aromatic-cationic peptide concentration in the peptide-doped cytochrome c layer 110 varies due to changes in the pH and/or temperature of the test substrate 130, the intensity at the luminescence wavelength varies as well. Detecting this change in intensity with a photodetector 150 yields an indication of the pH and/or temperature of the test substrate 130.
Photoluminescence (PL) was carried out to examine the effects of SS-31 on the electronic structure of conduction band of the […] of cytochrome c, an energy state responsible for electronic transport (FIG. 3). A […] laser (532.8 nm) was used to excite electrons in cytochrome c (FIG. 2A). Strong PL emission in cytochrome c state can be clearly identified at 650 nm (FIG. 2B).

cytochrome c [6] = target: T1, cytochrome c; test: Circular dichroism of Soret band of cytochrome c; format: biochemical; conditions: FIG. 4
Experimental: Circular dichroism (Olis spectropolarimeter, DSM20) was carried out to monitor Soret band (negative peak at 415 nm), as a probe for the π-π* heme environment in cytochrome c (FIG. 4). […] The increase in π-π* interaction around the heme would enhance electron tunneling which would be favorable for electron diffusion.

[7] = test system: isolated rat kidney mitochondria; test: O2 consumption of isolated rat kidney mitochondria (Oxygraph); format: biochemical; conditions: for electron flux, as measured by O2 consumption: 100 μM peptide, 0.5 mM succinate (complex II substrate) and 400 μM ADP, FIG. 14
Experimental: (§1) Mitochondrial O2 consumption and ATP production: Fresh mitochondria were isolated from rat kidney as described previously. Electron flux was measured by O2 consumption (Oxygraph Clark electrode) as previously described using different substrates for C1 (glutamate/malate), C2 (succinate), and C3 (TMPD/ascorbate). Assays were carried out under low substrate conditions in order to avoid saturating the enzyme reactions. ATP production in isolated mitochondria was determined kinetically using the luciferase method (Biotherma) in a 96-well luminescence plate reader (Molecular Devices). The initial maximal rate for ATP synthesis was determined over the first minute.
Oxygen consumption of isolated rat kidney mitochondria was determined using the Oxygraph (FIG. 5). Rates of respiration were measured in the presence of different concentrations of SS-31 in state 2 (400 μM ADP only), state 3 (400 μM ADP and 500 μM substrates) and state 4 (substrates only). All experiments were done in triplicate with n=4-7.
(§2) SS-20 or SS-31 was added at 100 μM concentrations to isolated mitochondria in respiration buffer containing 0.5 mM succinate (complex II substrate) and 400 μM ADP.

isolated mitochondria = test: ATP synthesis in isolated mitochondria; format: biochemical, rat; conditions: for rate of ATP production: isolated mitochondria energized with low concentrations of succinate, FIG. 15
Experimental: as §1
The rate of mitochondrial ATP synthesis was determined by measuring ATP in respiration buffer collected from isolated mitochondria 1 min after addition of […] (FIG. 6). ATP was assayed by HPLC. All experiments were carried out in triplicate, with n=3.
as §2

[8] = test system: cytochrome c-depleted mitoplasts made from once-frozen rat kidney mitochondria; test: O2 consumption in cytochrome c-depleted mitoplasts; format: biochemical; conditions: 500 μM Succinate, 100 μM SS-31; FIG. 7
Experimental: Rates of respiration were measured in the presence of 500 μM Succinate with or without 100 μM SS-31. The experiment was carried out in triplicate, with n=3.

| Substance | lipid peroxidation [1] | neutralization of H2O2, hydroxyl radical, and peroxynitrite [1] | efficacy in animal models [2] | mitochondrial ROS and mitochondrial function (mitochondrial ROS) | rate of NAC-induced cytochrome c reduction (cytochrome c [3]; N-acetylcysteine (NAC) as reducing agent) | rate of cytochrome c reduction (cytochrome c [3]) | reduction of cytochrome c by peptide alone (cytochrome c [3]; peptide alone at 100 μM, no reducing agent) | spectral weight shift at 550 nm of cytochrome c (cytochrome c [3]; reduction of cytochrome c with glutathione, FIG. 1A) | current for reduction and oxidation processes of cytochrome c (cytochrome c [4]; Au working electrode, Ag/AgCl reference, FIG. 2 upper panel) | reduction/oxidation potentials of cytochrome c (cytochrome c [4]; FIG. 2 upper panel) | increase of current (electron diffusion rate) (cytochrome c [4]; cytochrome c:SS-31=1:2, TBE buffer, FIG. 2 lower panel) [%] | PL intensity of cytochrome c at 650 nm (cytochrome c [5]) | denaturing of cytochrome c (cytochrome c [6]) | Soret band peak position after red shift (cytochrome c [6]; negative peak at 415 nm without peptide) [nm] | electron flux, as measured by O2 consumption [7] | rates of respiration (O2 consumption) ([7]; different concentrations of SS-31, state 2, state 3 and state 4, FIG. 5) | rate of ATP synthesis (isolated mitochondria; ATP by HPLC 1 min after addition of 400 mM ADP, FIG. 6) | rate of ATP production (isolated mitochondria) | mitochondrial O2 consumption (rates of respiration) in cytochrome c-depleted mitoplasts [8] |
| --- | --- | --- | --- | --- | --- | --- | --- | --- | --- | --- | --- | --- | --- | --- | --- | --- | --- | --- | --- |
| D-Arg-2′6′-Dmt-Tyr-Lys-Phe-NH2 | inhibit lipid peroxidation | can neutralize H2O2, hydroxyl radical, and peroxynitrite | remarkable efficacy | reduces mitochondrial ROS and protect mitochondrial function | – | – | – | – | – | – | – | – | – | – | – | – | – | – | – |
| D-Arg-2′,6′-Dmt-Lys-Phe-NH2 [SS-31] | – | – | – | – | dose-dependently increased | increased; also recorded: accelerate | did not reduce cytochrome c | significant spectral weight shift | increased current | does not alter | ~200 | increased dose-dependently | without denaturing | 440 | promote electron flux | promoted electron transfer to oxygen without uncoupling mitochondria | dose-dependently increased | significant increase | Enhances Respiration |
| F[dR]FK-NH2 [SS-20] | – | – | – | – | – | accelerate | – | – | – | – | – | – | – | – | promote electron flux | – | – | significant increase | – |

Reference: patent US20170240593A1, “AROMATIC-CATIONIC PEPTIDES AND USES OF SAME” (Cornell University, priority 2011, published 2017)
